Activity calls are given as the source filed them.
Assays:
Fatty acid synthase [1] = biological target: T1, Fatty acid synthase (Homo sapiens, UniProt P49327); assay: inhibition of human FAS-TE enzyme activity – biochemical, endpoint fluorescence intensity, uHTS hits, dose response (AID 624327); type: functional;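 note: fluorescence from hydrolysis of an O-methyl fluorescein acyl ester substrate by the enzyme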
Fatty acid synthase [2] = biological target: T1, Fatty acid synthase; assay: inhibition of human FAS-TE enzyme activity – biochemical, kinetic fluorescence intensity, dose response (AID 624326); type: functional;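 note: rate of fluorescence rise from hydrolysis of a fluorogenic O-methyl fluorescein ester substrate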
[3] = biological target: Eukaryotic translation initiation factor 4E (Mus musculus, UniProt P63073); assay: blockers of eIF4G binding by eIF4E – biochemical, TR-FRET, dose response (AID 855); type: functional;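 note: potency for disrupting eIF4E binding to eIF4GI seen as loss of FRET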
Eukaryotic translation initiation factor 4E, sequence (P63073 whole entry): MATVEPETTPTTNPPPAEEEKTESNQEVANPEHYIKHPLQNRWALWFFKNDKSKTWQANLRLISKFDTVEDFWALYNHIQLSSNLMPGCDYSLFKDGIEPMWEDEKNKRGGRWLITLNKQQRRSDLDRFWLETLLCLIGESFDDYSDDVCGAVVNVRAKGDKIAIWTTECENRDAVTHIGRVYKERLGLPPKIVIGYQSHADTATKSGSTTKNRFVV

P388/ADR = assay: cells; type: functional; conditions: Mus musculus
SN12K1 = assay: cells; type: functional; conditions: Homo sapiens
P388 = assay: cells; type: functional; conditions: Mus musculus
Caspase-3 = biological target: T2, Caspase-3 (Homo sapiens, UniProt P42574); type: functional;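 note: Dose-response selectivity test against caspase-3 for candidate inhibitors of sentrin-specific proteases (SENPs)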
T2 sequence (P42574 whole entry): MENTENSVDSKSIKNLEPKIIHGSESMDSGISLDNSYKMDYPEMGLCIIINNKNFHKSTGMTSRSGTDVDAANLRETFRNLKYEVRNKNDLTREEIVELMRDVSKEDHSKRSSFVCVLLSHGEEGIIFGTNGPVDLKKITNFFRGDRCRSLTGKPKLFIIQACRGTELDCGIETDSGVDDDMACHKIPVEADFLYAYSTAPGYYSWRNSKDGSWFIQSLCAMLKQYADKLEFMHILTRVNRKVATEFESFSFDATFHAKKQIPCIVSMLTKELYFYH

[4] = biological target: T3, Sentrin-specific protease 7 (Homo sapiens, UniProt Q9BQF6); type: functional;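 note: Luminescence-based dose-response confirmation of ultra-high-throughput screening hits, measuring inhibition of SENP7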
T3 sequence (Q9BQF6 whole entry): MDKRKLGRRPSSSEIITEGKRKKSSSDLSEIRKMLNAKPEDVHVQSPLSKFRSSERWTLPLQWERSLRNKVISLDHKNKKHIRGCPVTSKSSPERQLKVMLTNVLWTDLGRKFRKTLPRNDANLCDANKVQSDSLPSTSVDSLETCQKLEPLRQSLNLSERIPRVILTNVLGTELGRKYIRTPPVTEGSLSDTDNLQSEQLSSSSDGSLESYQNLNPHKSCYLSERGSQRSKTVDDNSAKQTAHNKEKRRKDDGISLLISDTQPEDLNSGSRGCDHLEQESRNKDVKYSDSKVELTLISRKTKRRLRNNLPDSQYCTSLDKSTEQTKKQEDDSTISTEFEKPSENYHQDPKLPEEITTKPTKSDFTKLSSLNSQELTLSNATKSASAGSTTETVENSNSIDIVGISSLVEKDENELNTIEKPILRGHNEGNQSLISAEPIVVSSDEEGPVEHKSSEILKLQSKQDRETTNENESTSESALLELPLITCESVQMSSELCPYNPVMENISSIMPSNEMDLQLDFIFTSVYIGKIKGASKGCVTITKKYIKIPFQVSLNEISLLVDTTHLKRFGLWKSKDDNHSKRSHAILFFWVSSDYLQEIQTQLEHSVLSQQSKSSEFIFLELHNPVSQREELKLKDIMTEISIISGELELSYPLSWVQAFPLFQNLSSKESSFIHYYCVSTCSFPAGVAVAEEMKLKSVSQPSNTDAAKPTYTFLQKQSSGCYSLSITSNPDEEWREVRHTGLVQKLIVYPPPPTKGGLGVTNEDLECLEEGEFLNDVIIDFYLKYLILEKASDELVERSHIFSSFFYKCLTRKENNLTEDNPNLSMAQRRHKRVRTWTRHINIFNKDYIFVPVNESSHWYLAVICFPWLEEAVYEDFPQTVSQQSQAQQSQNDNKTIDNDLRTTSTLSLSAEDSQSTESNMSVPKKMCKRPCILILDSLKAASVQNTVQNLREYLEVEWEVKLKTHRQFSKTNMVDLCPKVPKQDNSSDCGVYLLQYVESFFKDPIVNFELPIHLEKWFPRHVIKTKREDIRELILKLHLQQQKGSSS

[5] = biological target: T4, Sentrin-specific protease 6 (Homo sapiens, UniProt Q9GZR1); type: functional;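 note: Luminescence-based dose-response confirmatory assay of SENP6 inhibition, following up an ultra-high-throughput screen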
T4 sequence (Q9GZR1 whole entry): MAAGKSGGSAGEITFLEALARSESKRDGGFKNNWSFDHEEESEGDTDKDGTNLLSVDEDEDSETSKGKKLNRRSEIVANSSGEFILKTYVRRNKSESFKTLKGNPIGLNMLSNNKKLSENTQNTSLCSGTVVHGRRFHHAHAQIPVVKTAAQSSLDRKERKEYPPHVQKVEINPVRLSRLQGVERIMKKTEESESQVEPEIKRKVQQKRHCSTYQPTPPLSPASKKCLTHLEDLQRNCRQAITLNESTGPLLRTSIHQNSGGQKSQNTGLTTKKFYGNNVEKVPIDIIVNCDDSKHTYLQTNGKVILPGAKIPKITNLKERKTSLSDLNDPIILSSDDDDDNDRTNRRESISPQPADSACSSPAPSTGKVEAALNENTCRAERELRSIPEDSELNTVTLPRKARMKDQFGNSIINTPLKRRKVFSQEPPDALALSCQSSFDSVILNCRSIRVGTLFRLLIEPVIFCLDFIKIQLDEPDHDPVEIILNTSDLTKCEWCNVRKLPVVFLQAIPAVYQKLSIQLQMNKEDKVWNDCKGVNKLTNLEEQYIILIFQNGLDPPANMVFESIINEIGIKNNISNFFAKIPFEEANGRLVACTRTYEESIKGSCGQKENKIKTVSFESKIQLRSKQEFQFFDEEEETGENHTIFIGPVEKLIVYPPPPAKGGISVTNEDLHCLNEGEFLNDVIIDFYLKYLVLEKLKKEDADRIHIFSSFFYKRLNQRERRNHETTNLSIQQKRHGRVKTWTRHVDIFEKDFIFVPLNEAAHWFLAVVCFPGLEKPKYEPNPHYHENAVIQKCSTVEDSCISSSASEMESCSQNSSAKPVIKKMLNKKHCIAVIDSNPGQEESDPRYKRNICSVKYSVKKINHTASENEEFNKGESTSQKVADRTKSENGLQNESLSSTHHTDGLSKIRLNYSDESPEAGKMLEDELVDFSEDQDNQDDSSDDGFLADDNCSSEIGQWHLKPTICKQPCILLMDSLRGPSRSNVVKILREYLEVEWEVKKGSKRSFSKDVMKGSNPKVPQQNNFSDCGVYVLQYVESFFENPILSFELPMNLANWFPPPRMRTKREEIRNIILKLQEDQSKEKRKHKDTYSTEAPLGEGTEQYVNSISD

[6] = biological target: T5, Sentrin-specific protease 8 (Homo sapiens, UniProt Q96LD8); type: functional;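 note: luminescence read-out of SENP8 inhibition, dose-response confirmation following an ultra-high-throughput screen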
T5 sequence (Q96LD8 whole entry): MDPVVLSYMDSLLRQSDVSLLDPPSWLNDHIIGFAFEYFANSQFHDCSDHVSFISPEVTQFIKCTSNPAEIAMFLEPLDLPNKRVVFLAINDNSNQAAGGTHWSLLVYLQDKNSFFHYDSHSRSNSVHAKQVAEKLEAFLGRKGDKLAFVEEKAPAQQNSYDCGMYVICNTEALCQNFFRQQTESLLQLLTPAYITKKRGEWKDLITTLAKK

Beta-lactamase [7] = biological target: Beta-lactamase (Salmonella choleraesuis (strain SC-B67), UniProt Q5J463); assay: Epi-absorbance-based counterscreen for selective VIM-2 inhibitors: dose response biochemical high throughput screening assay to identify inhibitors of TEM-1 serine-beta-lactamase.
Beta-lactamase (Salmonella choleraesuis (strain SC-B67), UniProt Q5J463), sequence (Q5J463 whole entry): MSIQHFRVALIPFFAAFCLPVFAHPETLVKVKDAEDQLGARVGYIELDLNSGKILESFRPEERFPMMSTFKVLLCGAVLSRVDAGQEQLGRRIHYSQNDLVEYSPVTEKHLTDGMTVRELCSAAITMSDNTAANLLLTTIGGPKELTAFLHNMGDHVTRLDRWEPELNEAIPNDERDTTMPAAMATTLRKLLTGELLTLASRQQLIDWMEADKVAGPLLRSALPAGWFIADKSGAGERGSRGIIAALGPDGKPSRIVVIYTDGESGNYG

Beta-lactamase [8] = biological target: T6, Beta-lactamase (Pseudomonas aeruginosa, UniProt Q79MP6); assay: inhibition of IMP-1 beta-lactamase activity – biochemical, epi-absorbance, selectivity assay for VIM-2 inhibitor project, dose response (AID 1920)
T6 sequence (Q79MP6 whole entry): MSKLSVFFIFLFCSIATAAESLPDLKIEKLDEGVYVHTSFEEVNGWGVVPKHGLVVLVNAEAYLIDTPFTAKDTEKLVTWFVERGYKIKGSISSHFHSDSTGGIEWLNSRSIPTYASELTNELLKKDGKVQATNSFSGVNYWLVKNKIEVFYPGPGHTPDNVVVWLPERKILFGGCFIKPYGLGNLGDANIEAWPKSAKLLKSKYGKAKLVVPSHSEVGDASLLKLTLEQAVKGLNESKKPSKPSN

Beta-lactamase [9] = biological target: T6, Beta-lactamase; assay: […] counterscreen for selective VIM-2 inhibitors: dose response biochemical high throughput screening assay to identify inhibitors of IMP-1 metallo-beta-lactamase.
[10] = biological target: T7, Endoribonuclease toxin MazF (Escherichia coli K-12, UniProt P0AE70); assay: activation of MazEF endoribonuclease cleavage – biochemical, fluorescence, single-stranded RNA substrate, uHTS hits, dose response (AID 588481); type: functional
T7 sequence (P0AE70 whole entry): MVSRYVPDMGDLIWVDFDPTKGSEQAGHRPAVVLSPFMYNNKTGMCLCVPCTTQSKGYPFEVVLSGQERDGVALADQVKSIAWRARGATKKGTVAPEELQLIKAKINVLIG

[11] = biological target: T7, Endoribonuclease toxin MazF; assay: substrate-only fluorescence increase artefacts – biochemical, single-stranded RNase substrate, counter-screen for MazEF activator project, dose response (AID 588502); type: functional
BJ [12] = assay: BJ-TERT fibroblast viability loss – cell-based, RAS-independent, luminescence, dose response (AID 1933); type: functional; conditions: Homo sapiens
BJ [13] = assay: cells; type: functional, cell-based; conditions: Homo sapiens
BJ [14] = assay: BJ-TERT-LT-ST fibroblast viability loss – cell-based, RAS-independent, luminescence, dose response (AID 1935); type: functional; conditions: Homo sapiens;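 note: BJ fibroblasts immortalized with TERT plus LT and ST oncogenes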
[15] = DRD fibroblast viability loss – cell-based, non-viral oncogenic, luminescence, dose response (AID 1934); type: functional; conditions: Homo sapiens
[16] = HEK-293T viability loss after treatment – luminescence, T-cell screen hits, cytotoxicity control for TCR NF-kB inhibitor project, dose response (AID 489026); type: functional, cell-based;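 note: cells exposed to compound about 14 hours before the viability readout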
[17] = Luminescence Cell-Based Dose Retest to Confirm Inhibitors of Cancer Stem Cells. [Related pubchem assays (depositor defined):AID2717, AID2721]; type: functional; conditions: Homo sapiens
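Throughout, for AC50: cells exposed to compound for roughly 70 hours or longer before luminescence read.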

T1 sequence (P49327 whole entry): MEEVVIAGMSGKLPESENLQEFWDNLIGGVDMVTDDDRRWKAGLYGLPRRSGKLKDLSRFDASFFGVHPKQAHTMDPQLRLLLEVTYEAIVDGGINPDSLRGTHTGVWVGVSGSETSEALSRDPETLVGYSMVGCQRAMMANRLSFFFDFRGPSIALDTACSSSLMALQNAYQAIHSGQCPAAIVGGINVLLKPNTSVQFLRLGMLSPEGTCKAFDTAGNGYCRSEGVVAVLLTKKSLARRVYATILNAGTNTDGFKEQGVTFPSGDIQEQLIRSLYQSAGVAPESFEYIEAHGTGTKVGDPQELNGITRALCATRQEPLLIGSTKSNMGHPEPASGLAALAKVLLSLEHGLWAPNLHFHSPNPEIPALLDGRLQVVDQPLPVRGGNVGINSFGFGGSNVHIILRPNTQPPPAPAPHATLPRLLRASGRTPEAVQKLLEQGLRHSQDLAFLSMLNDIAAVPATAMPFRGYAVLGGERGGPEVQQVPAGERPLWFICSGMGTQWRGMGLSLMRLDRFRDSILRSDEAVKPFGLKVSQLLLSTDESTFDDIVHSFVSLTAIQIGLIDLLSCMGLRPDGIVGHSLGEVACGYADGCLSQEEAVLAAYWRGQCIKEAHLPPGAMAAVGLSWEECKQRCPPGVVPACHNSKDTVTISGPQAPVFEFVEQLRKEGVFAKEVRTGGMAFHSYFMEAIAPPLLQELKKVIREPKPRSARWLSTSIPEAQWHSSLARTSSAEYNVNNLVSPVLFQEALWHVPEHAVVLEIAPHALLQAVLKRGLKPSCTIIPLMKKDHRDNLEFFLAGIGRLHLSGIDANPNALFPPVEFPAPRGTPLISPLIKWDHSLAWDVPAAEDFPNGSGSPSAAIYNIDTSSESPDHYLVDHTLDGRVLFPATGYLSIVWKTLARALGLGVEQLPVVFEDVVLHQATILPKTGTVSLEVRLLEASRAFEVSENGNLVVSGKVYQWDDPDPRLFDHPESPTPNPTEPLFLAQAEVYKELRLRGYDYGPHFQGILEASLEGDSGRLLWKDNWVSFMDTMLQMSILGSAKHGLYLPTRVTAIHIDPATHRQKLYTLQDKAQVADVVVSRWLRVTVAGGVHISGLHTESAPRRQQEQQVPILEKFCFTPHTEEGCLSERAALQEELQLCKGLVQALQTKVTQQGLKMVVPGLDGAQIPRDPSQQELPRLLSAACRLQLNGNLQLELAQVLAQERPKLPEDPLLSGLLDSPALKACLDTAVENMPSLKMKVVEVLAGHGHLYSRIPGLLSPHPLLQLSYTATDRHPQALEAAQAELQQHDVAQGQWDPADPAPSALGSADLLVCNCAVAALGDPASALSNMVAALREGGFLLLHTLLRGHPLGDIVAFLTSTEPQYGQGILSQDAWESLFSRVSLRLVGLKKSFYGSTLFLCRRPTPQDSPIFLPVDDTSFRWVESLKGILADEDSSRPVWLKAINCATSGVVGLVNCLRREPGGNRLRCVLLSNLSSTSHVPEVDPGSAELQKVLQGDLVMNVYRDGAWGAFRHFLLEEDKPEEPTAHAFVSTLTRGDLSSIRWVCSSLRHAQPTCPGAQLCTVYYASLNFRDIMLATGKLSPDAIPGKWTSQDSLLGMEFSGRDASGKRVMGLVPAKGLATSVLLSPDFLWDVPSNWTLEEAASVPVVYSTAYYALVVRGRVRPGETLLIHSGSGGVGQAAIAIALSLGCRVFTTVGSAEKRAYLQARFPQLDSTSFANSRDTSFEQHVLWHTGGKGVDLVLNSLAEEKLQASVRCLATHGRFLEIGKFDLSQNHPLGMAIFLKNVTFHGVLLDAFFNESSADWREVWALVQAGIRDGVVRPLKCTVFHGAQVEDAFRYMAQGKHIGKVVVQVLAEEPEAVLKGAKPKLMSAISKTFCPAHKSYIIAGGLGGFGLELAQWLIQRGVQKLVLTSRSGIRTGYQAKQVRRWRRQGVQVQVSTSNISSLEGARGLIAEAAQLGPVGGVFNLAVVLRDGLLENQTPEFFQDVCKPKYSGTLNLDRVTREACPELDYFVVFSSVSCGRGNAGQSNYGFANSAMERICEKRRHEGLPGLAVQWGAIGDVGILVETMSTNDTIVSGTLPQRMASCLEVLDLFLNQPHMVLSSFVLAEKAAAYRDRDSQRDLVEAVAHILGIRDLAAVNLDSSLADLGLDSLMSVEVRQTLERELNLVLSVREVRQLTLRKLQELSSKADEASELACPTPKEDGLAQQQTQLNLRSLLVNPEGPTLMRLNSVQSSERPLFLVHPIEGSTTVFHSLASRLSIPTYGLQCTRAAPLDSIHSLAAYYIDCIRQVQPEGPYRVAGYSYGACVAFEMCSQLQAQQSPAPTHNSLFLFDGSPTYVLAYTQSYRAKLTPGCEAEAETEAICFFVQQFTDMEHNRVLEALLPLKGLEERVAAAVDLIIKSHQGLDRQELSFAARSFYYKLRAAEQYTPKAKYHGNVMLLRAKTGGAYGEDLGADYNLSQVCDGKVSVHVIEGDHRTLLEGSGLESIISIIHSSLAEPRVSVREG

## CCCCC(CC)C(=O)Nc1cc([N+](=O)[O-])ccc1F (stereo not given)
Fatty acid synthase [1]
  IC50: 3.19 µM (active)
Fatty acid synthase [2]
  IC50: 4.44 µM (active)

## O=C(O)CCSc1nnc(SCC(=O)NCC(F)(F)F)s1
[3]
  IC50: > 64 µM (inactive)

## O=C1NC(O)CCN1C1OC(CO)C(O)C1O (stereo not given)
P388/ADR
  GI50: > 250 µM (inactive)
SN12K1
  GI50: > 250 µM (inactive)
P388
  GI50: > 250 µM (inactive)

## NC(=O)c1ccccc1NC(=O)/C=C/c1c(Cl)cccc1Cl
Caspase-3
  IC50: 21.5 µM (active)
[4]
  IC50: 6.11 µM (active)
[5]
  IC50: > 100 µM (inactive)
[6]
  IC50: > 100 µM (inactive)

## CCCn1c(S)nnc1C(C)C
Beta-lactamase [7]
  IC50: > 59.6 µM (inactive)
Beta-lactamase [8]
  IC50: > 59.6 µM (inactive)
Beta-lactamase [9]
  IC50: > 59.6 µM (inactive)

## O=C1N[C@H]2[C@H](O)[C@H](O)[C@@H](O)[C@H](O)[C@@H]2c2cc3c(c(O)c21)OCO3 [PANCRATISTATIN]
P388/ADR
  GI50: 0.0406 µM (active)
SN12K1
  GI50: 0.047 µM (active)
P388
  GI50: 0.0366 µM (active)

## O=C(C1CCN(S(=O)(=O)c2cccnc2)CC1)N1CCN(c2cccc(Cl)c2)CC1
[3]
  IC50: > 64 µM (inactive)

## CCCn1c(O)c(N=Nc2ccc3ccccc3n2)c2ccccc21
[10]
  EC50: > 99 µM (inactive)
[11]
  EC50: > 99 µM (inactive)

## COc1ccc([N+](=O)[O-])cc1NC(=O)C(C)OC(=O)CC1CCCC1 (stereo not given)
Fatty acid synthase [1]
  IC50: 6.83 µM (active)
Fatty acid synthase [2]
  IC50: 5.28 µM (active)

## COc1ccccc1C(=O)Nc1nnc(SCC(=O)NCc2ccco2)s1
Beta-lactamase [7]
  IC50: > 59.6 µM (inactive)
Beta-lactamase [8]
  IC50: > 59.6 µM (inactive)
Beta-lactamase [9]
  IC50: > 59.6 µM (inactive)

## CC/C=C\C/C=C\C/C=C\CCCCCCCC(=O)OC [METHYL LINOLENATE]
P388/ADR
  GI50: 28.2 µM (inactive)
SN12K1
  GI50: > 100 µM (inactive)
P388
  GI50: > 10 µM (inactive)

## CCOc1ccc(S(=O)(=O)NCc2ccccn2)cc1NC(=O)c1ccccc1F
BJ [12]
  EC50: 2.76 µM (active)
BJ [13]
  EC50: 21.4 µM (active)
BJ [14]
  EC50: 1.79 µM (active)
[15]
  EC50: 12.9 µM (inconclusive)
[16]
  IC50: > 80 µM (inactive)

## CC(C)(C)C(=O)OCc1ccc(C2=CC(=O)CC(C)(C)C2=O)cc1
Fatty acid synthase [1]
  IC50: 1.28 µM (active)
Fatty acid synthase [2]
  IC50: 3.9 µM (active)

## CC(C)C(=O)Nc1ccc2nn(-c3ccc(F)cc3)nc2c1
Caspase-3
  IC50: 8.48 µM (active)
[4]
  IC50: 3.03 µM (active)
[5]
  IC50: 6.19 µM (active)
[6]
  IC50: 41.3 µM (active)

## COC(=O)c1ccc(NC(=O)Nc2ccc(F)c(Cl)c2)cc1
Caspase-3
  IC50: 48 µM (active)
[4]
  IC50: 6.56 µM (active)
[5]
  IC50: > 100 µM (inactive)
[6]
  IC50: > 100 µM (inactive)

## COC(=O)/C=C/C(=O)N1CCN(c2ccccc2C)CC1
[3]
  IC50: > 64 µM (inactive)

## OC(C1CO1)C(O)C1CO1 (stereo not given)
P388/ADR
  GI50: 9.79 µM (inactive)
SN12K1
  GI50: 54.7 µM (inactive)
P388
  GI50: 13.5 µM (inactive)

## Cc1cc(C(=O)N/N=C/C(Cl)=C/c2ccccc2)c(C)o1
Caspase-3
  IC50: 18.2 µM (active)
[4]
  IC50: 7.77 µM (active)
[5]
  IC50: 22.6 µM (active)
[6]
  IC50: > 100 µM (inactive)

## COC(=O)Nc1ccc(S(=O)(=O)N2c3ccccc3CCC2C)cc1 (stereo not given)
[17]
  AC50: 876 nM (active)
[16]
  IC50: > 80 µM (inactive)

## CC(C)=CCc1cc(-c2oc3cc(O)cc(O)c3c(=O)c2O)ccc1O [ISOLICOFLAVONOL]
[10]
  EC50: 14 µM (active)
[11]
  EC50: > 99 µM (inactive)

## CCn1c(O)c(N=Nc2ccc3ccccc3n2)c2ccccc21
Caspase-3
  IC50: 2.1 µM (active)
[4]
  IC50: 0.857 µM (active)
[5]
  IC50: 1.11 µM (active)
[6]
  IC50: 1.83 µM (active)

## O=C(CSc1nnc2scc(-c3ccccc3)n12)c1ccc2c(c1)OCCO2
[10]
  EC50: > 99 µM (inactive)
[11]
  EC50: > 99 µM (inactive)

Reference: ChEMBL document CHEMBL1201862, “PubChem BioAssay data set” (2004)
